Results taken from patent publication US20090143279A1 (priority 2007, published 2009).
Like-named read-outs stand apart in the source and are kept apart here.

Experiments:
[1] = test system: mitochondrial membrane potential; format: cell-based, mouse; settings: for ΔΨm (composite Z-score): normalized score vs mock-treated (DMSO) wells
nuOXPHOS transcripts = format: cell-based, mouse; settings: for nucOX (composite Z-score): normalized score vs mock-treated (DMSO) wells
reactive oxygen species = format: cell-based, mouse; settings: for ROS (composite Z-score): normalized score vs mock-treated (DMSO) wells
cytochrome c = format: cell-based, mouse; settings: for cyt c (composite Z-score): normalized score vs mock-treated (DMSO) wells
mtOXPHOS transcripts = format: cell-based, mouse; settings: for mitoOX (composite Z-score): normalized score vs mock-treated (DMSO) wells
[2] = test system: cellular dehydrogenase activity; settings: for MTT (composite Z-score): normalized score vs mock-treated (DMSO) wells
OXPHOS gene expression = format: cell-based, mouse; settings: for GE-HTS (composite Z-score): normalized score vs mock-treated (DMSO) wells
C2C12 myotubes = settings: for Viability (composite Z-score): normalized score vs mock-treated (DMSO) wells
[3] = composite Z-score vs DMSO, Conc 20 μM
[4] = composite Z-score vs mock-treated (DMSO) wells, Conc 20 μM
[5] = normalized composite Z-score vs mock-treated (DMSO) wells, Conc 20 μM
[6] = composite Z-score vs DMSO wells, Conc 20 μM
[7] = composite Z-score vs DMSO, Conc 20.38 μM

## COC(=O)C[C@H]1C2(C)CC34OC5(C)O[C@@]6([C@H](OC(C)=O)C(OC(C)=O)[C@]7(C)C(/C(=C(/O)C(C)C)C(=O)O[C@H]7c7ccoc7)[C@@]6(O5)[C@H](OC(C)=O)[C@@]3(O)C2OC(=O)C(C)C)[C@]14C (some centres unmarked) [bussein]
[1]; [3]
  ΔΨm: −0.807
[1]; [4]
  ΔΨm: 0.367
nuOXPHOS transcripts; [3]
  nucOX: −0.683
nuOXPHOS transcripts; [4]
  nucOX: 1.431
Reactive oxygen species; [3]
  ROS: 0.656
Reactive oxygen species; [4]
  ROS: −0.449
Cytochrome c; [3]
  cyt c: 0.622
Cytochrome c; [4]
  cyt c: −1.496
mtOXPHOS transcripts; [3]
  mitoOX: −0.868
mtOXPHOS transcripts; [4]
  mitoOX: 1.660
[2]; [3]
  MTT: −0.599
[2]; [4]
  MTT: −1.406
OXPHOS gene expression; [3]
  GE-HTS: −0.809
OXPHOS gene expression; [4]
  GE-HTS: 1.630
C2C12 myotubes; [3]
  Viability: −0.052
C2C12 myotubes; [4]
  Viability: 0.575

## CCC[C@H]1CC2=C(C[C@@H](CC)CC3=C1C(=O)OC3=O)C(=O)OC2=O [byssochlamic acid]
[1]; Conc 20 μM
  ΔΨm (composite Z-score): −0.092
nuOXPHOS transcripts; Conc 20 μM
  nucOX (composite Z-score): −0.069
Reactive oxygen species; Conc 20 μM
  ROS (composite Z-score): 0.253
Cytochrome c; Conc 20 μM
  cyt c (composite Z-score): −1.053
mtOXPHOS transcripts; Conc 20 μM
  mitoOX (composite Z-score): −0.458
[2]; Conc 20 μM
  MTT (composite Z-score): −0.488
OXPHOS gene expression; Conc 20 μM
  GE-HTS (composite Z-score): −0.230
C2C12 myotubes; Conc 20 μM
  Viability (composite Z-score): −0.241

## NCCCCCN [cadaverine]
[1]; [3]
  ΔΨm: −0.730
nuOXPHOS transcripts; [3]
  nucOX: −0.667
Reactive oxygen species; [3]
  ROS: 0.160
Cytochrome c; [3]
  cyt c: −0.135
mtOXPHOS transcripts; [3]
  mitoOX: −0.205
[2]; [3]
  MTT: −0.915
OXPHOS gene expression; [3]
  GE-HTS: −0.553
C2C12 myotubes; [3]
  Viability: −1.003

## CC1=CC2C(C(C)C)CCC(C)(O)C2CC1 (centres unmarked) [cadin-4-en-10-ol]
[1]; [5]
  ΔΨm: −0.297
nuOXPHOS transcripts; [5]
  nucOX: −0.244
Reactive oxygen species; [5]
  ROS: 0.180
Cytochrome c; [5]
  cyt c: 0.328
mtOXPHOS transcripts; [5]
  mitoOX: −1.252
[2]; [5]
  MTT: −0.041
OXPHOS gene expression; [5]
  GE-HTS: −0.610
C2C12 myotubes; [5]
  Viability: −0.101

## C[C@@]12CCc3occc3[C@H]1CC[C@@]13C[C@@H](CC[C@H]12)[C@@](O)(CO)C3 [cafestol]
[1]; [3]
  ΔΨm: 1.283
nuOXPHOS transcripts; [3]
  nucOX: −0.385
Reactive oxygen species; [3]
  ROS: 0.832
Cytochrome c; [3]
  cyt c: 1.374
mtOXPHOS transcripts; [3]
  mitoOX: −1.543
[2]; [3]
  MTT: 1.124
OXPHOS gene expression; [3]
  GE-HTS: −0.833
C2C12 myotubes; [3]
  Viability: 0.025

## O=C(O)CN(CC(=O)O)Cc1cc2c(cc1O)Oc1cc(O)c(CN(CC(=O)O)CC(=O)O)cc1C21OC(=O)c2ccccc21 [calcein]
[1]; [6]
  ΔΨm: −3.437
nuOXPHOS transcripts; [6]
  nucOX: −0.468
Reactive oxygen species; [6]
  ROS: 11.668
Cytochrome c; [6]
  cyt c: 0.465
mtOXPHOS transcripts; [6]
  mitoOX: −0.829
[2]; [6]
  MTT: −0.243
OXPHOS gene expression; [6]
  GE-HTS: −0.625
C2C12 myotubes; [6]
  Viability: 5.567

## CCOc1nc2cccc(C(=O)OC(C)OC(=O)OC3CCCCC3)c2n1Cc1ccc(-c2ccccc2-c2nn[nH]n2)cc1 (centres unmarked) [candesartan cilextil]
[1]; [3]
  ΔΨm: −0.743
nuOXPHOS transcripts; [3]
  nucOX: −0.259
Reactive oxygen species; [3]
  ROS: 1.855
Cytochrome c; [3]
  cyt c: 1.328
mtOXPHOS transcripts; [3]
  mitoOX: −0.658
[2]; [3]
  MTT: −1.116
OXPHOS gene expression; [3]
  GE-HTS: −0.432
C2C12 myotubes; [3]
  Viability: 1.842

## C[C@]12CCC(=O)C=C1C=C[C@@H]1[C@@H]2CC[C@@]2(C)[C@H]1CC[C@@]2(O)CCC(=O)O [canrenoic acid]
[1]; Conc 20 μM
  ΔΨm (composite Z-score): −0.749
nuOXPHOS transcripts; Conc 20 μM
  nucOX (composite Z-score): 0.154
Reactive oxygen species; Conc 20 μM
  ROS (composite Z-score): 0.803
Cytochrome c; Conc 20 μM
  cyt c (composite Z-score): 0.732
mtOXPHOS transcripts; Conc 20 μM
  mitoOX (composite Z-score): −0.047
[2]; Conc 20 μM
  MTT (composite Z-score): −0.973
OXPHOS gene expression; Conc 20 μM
  GE-HTS (composite Z-score): 0.072
C2C12 myotubes; Conc 20 μM
  Viability (composite Z-score): −0.004

## C[C@@]12C(=O)OC(=O)[C@]1(C)[C@H]1CC[C@@H]2O1 [cantharidin]
[1]; [3]
  ΔΨm: −2.513
[1]; [7]
  ΔΨm: −2.722
nuOXPHOS transcripts; [3]
  nucOX: 0.477
nuOXPHOS transcripts; [7]
  nucOX: 0.144
Reactive oxygen species; [3]
  ROS: −2.764
Reactive oxygen species; [7]
  ROS: −2.786
Cytochrome c; [3]
  cyt c: −5.284
Cytochrome c; [7]
  cyt c: −5.104
mtOXPHOS transcripts; [3]
  mitoOX: 2.498
mtOXPHOS transcripts; [7]
  mitoOX: 0.310
[2]; [3]
  MTT: −5.729
[2]; [7]
  MTT: −5.122
OXPHOS gene expression; [3]
  GE-HTS: 1.196
OXPHOS gene expression; [7]
  GE-HTS: 0.217
C2C12 myotubes; [3]
  Viability: −4.063
C2C12 myotubes; [7]
  Viability: −4.714

## COC(=O)C[C@H]1C(C)(C)C(=O)[C@@H]2CC3=C(CC[C@]4(C)C3=CC(=O)O[C@H]4c3ccoc3)[C@@]1(C)C2=O [carapin-8 (9)-ene]
[1]; Conc 20 μM
  ΔΨm (composite Z-score): −0.223
nuOXPHOS transcripts; Conc 20 μM
  nucOX (composite Z-score): −0.003
Reactive oxygen species; Conc 20 μM
  ROS (composite Z-score): 0.766
Cytochrome c; Conc 20 μM
  cyt c (composite Z-score): 0.412
mtOXPHOS transcripts; Conc 20 μM
  mitoOX (composite Z-score): 0.284
[2]; Conc 20 μM
  MTT (composite Z-score): −1.272
OXPHOS gene expression; Conc 20 μM
  GE-HTS (composite Z-score): 0.121
C2C12 myotubes; Conc 20 μM
  Viability (composite Z-score): 1.357

## COC(=O)C[C@H]1C(C)(C)C(=O)[C@@H]2CC3C4=CC(=O)O[C@@H](c5ccoc5)[C@]4(C)CC[C@@H]3[C@@]1(C)C2=O (some centres unmarked) [carapin]
[1]; [4]
  ΔΨm: −0.524
nuOXPHOS transcripts; [4]
  nucOX: 0.665
Reactive oxygen species; [4]
  ROS: 1.897
Cytochrome c; [4]
  cyt c: −0.096
mtOXPHOS transcripts; [4]
  mitoOX: 0.058
[2]; [4]
  MTT: −0.925
OXPHOS gene expression; [4]
  GE-HTS: 0.512
C2C12 myotubes; [4]
  Viability: 1.424
